From patent publication US20220030868A1, “FUNGICIDAL HALOMETHYL KETONES AND HYDRATES” (FMC CORPORATION, priority 2018, published 2022)

Experiments:
Phakopsora pachyrhizi = experiment: Test A: test suspension sprayed on soybean seedlings one day before inoculation with Phakopsora pachyrhizi spores (Asian soybean rust), visual disease rating; type: in vivo; settings: 100 = 100% disease control, 0 = no control; for pest or weed control at 50 ppm / pest or weed control at 10 ppm: Phakopsora pachyrhizi
Excerpt: General protocol for preparing test suspensions for Tests A-C: the test compounds were first dissolved in acetone in an amount equal to 3% of the final volume and then suspended at the desired concentration (in ppm) in acetone and purified water (50/50 mix by volume) containing 250 ppm of the surfactant PEG400 (polyhydric alcohol esters). The resulting test suspensions were then used in Tests A-C.
The test solution was sprayed to the point of run-off on soybean seedlings. The following day the seedlings were inoculated with a spore suspension of Phakopsora pachyrhizi (the causal agent of Asian soybean rust) and incubated in a saturated atmosphere at 22° C. for 24 h, and then moved to a growth chamber at 22° C. for 8 days, after which time visual disease ratings were made.
Results for Tests A-C are given in Table A. In the Table, a rating of 100 indicates 100% disease control and a rating of 0 indicates no disease control (relative to the controls). An asterisk “*” or a double asterisk “**” next to the rating value indicates a 50 ppm or 10 ppm test suspension was used, respectively. A dash (-) indicates the compound was not tested.

[1] = test system: Puccinia recondita f. sp. tritici; experiment: Test B: test suspension sprayed on wheat seedlings one day before inoculation with Puccinia recondita f. sp. tritici spores (wheat leaf rust), disease rating; type: in vivo; settings: 100 = 100% disease control, 0 = no control
Excerpt: General protocol for preparing test suspensions for Tests A-C: the test compounds were first dissolved in acetone in an amount equal to 3% of the final volume and then suspended at the desired concentration (in ppm) in acetone and purified water (50/50 mix by volume) containing 250 ppm of the surfactant PEG400 (polyhydric alcohol esters). The resulting test suspensions were then used in Tests A-C. The test solution was sprayed to the point of run-off on wheat seedlings. The following day the seedlings were inoculated with a spore suspension of Puccinia recondita f. sp. tritici (the causal agent of wheat leaf rust) and incubated in a saturated atmosphere at 20° C. for 24 h, and then moved to a growth chamber at 20° C. for 6 days, after which time disease ratings were made. Results for Tests A-C are given in Table A. In the Table, a rating of 100 indicates 100% disease control and a rating of 0 indicates no disease control (relative to the controls). An asterisk “*” or a double asterisk “**” next to the rating value indicates a 50 ppm or 10 ppm test suspension was used, respectively. A dash (-) indicates the compound was not tested.

Compound | Test A rating (disease control) (Phakopsora pachyrhizi; 10 ppm test suspension) | Test B rating (disease control) ([1]; 10 ppm test suspension) | further results
FC(F)(F)C1(COc2ccc(OCC3(C(F)(F)F)OCCO3)cc2)OCCO1 [compound 28] | 0% | 0% | –
CCCCOC(=O)c1cnn(Cc2ccc(OCC3(C(F)(F)F)OCCO3)cc2)c1 [compound 125] | 100% | 0% | –
CCC#CCOC(=O)c1ccn(Cc2ccc(O/C=C(\OCC)C(F)(F)F)cc2)n1 [compound 326] | 100% | 0% | –
CCOC(=O)c1cnn(Cc2ccc(OCC3(C(F)(F)F)OC(=O)[C@@H](C)O3)cc2)c1 (stereo partly drawn) [Compound 187] | 93% | 74% | –
CCO/C(=C\Oc1ccc(Cn2ncnc2C#N)cc1)C(F)(F)F [Compound 81] | 0% | 0% | –
CCOC(=O)c1cn(Cc2ccc(O/C=C(\OCC)C(F)(F)F)cc2)nn1 [compound 121] | 100% | 0% | –
CCOC(=O)c1cnn(COc2ccc(O/C=C(\OCC)C(F)(F)F)cc2)c1 [Compound 364, ethyl 1-[[4-[[(1Z)-2-ethoxy-3,3,3-trifluoro-1-propen-1-yl]oxy]phenoxy]methyl]-1H-pyrazole-4-carboxylate] | – | – | pest or weed control at 50 ppm (Phakopsora pachyrhizi; 50 ppm test suspension): 100%; pest or weed control at 50 ppm ([1]; 50 ppm test suspension): 0%
CCOC(=O)c1cnn(CCc2ccc(OCC(O)(O)C(F)(F)F)cc2)c1 [Compound 131] | – | – | Test A rating (disease control) (Phakopsora pachyrhizi; 50 ppm test suspension): 99%; Test B rating (disease control) ([1]; 50 ppm test suspension): 86%
O=C(NCc1ccc(OCC2(C(F)(F)F)OCCO2)cc1)C1CC1 [compound 176] | 0% | 0% | –
CCOC(=O)c1cnn(Cc2ccc(OC(C)C(O)(O)C(F)(F)F)cc2)c1 (stereo not drawn) [Compound 5] | 0% | 0% | –
O=S(=O)(NCc1ccc(OCC2(C(F)(F)F)OCCO2)cc1)C(F)(F)F [compound 207] | 0% | 0% | –
CCOC(=O)c1cnn(Cc2ccc(O/C=C(\OCCOC)C(F)(F)F)cc2)c1 [compound 54] | 0% | 0% | –
O=C(NCc1ccc(OCC2(C(F)(F)F)OCCO2)cc1)c1cccc(C(F)(F)F)c1 [compound 179] | 0% | 0% | –
CCCO/C(=C\Oc1ccc(Cn2cc(C(=O)OCC)cn2)cc1)C(F)(F)F [compound 65] | 100% | 0% | –
COC(=O)NN=Cc1ccc(OCC2(C(F)(F)F)OCCO2)cc1 [compound 27] | 0% | 0% | –
CCO/C(=C\Oc1ccc(CNS(=O)(=O)CC)cc1)C(F)(F)F [compound 149] | 0% | 0% | –
CCOC(=O)c1ccc2c(cnn2Cc2ccc(OCC3(C(F)(F)F)OCCO3)cc2)c1 [compound 160] | 13% | 0% | –
CCO/C(=C\Oc1ccc(Cn2ncnc2C(=O)OC)cc1)C(F)(F)F [Compound 122] | 0% | 0% | –
CCO/C(=C\Oc1ccc(Cn2nc(C)cc2C)cc1)C(F)(F)F [compound 152] | 0% | 0% | –
O=C(OCCCCl)c1cnn(Cc2ccc(OCC3(C(F)(F)F)OCCO3)cc2)c1 [compound 161] | 100% | 0% | –
CCOC(=O)c1cnn(Cc2ccc(OCC3(C(F)(F)F)OCCCO3)cc2)c1 [Compound 52] | 99% | 0% | –

Compound | Test A rating (disease control) (Phakopsora pachyrhizi; 10 ppm test suspension) | Test B rating (disease control) ([1]; 10 ppm test suspension) | further results
C=CCNC(=O)c1ccc(O/C=C(\OCC)C(F)(F)F)cc1 [compound 103] | 0% | 0% | –
CCOC(=O)c1cnn(Cc2cccc(O/C=C(\OCC)C(F)(F)F)c2F)c1 [compound 301] | – | – | pest or weed control at 50 ppm (Phakopsora pachyrhizi; 50 ppm test suspension): 100%; pest or weed control at 50 ppm ([1]; 50 ppm test suspension): 0%
CCOC(=O)c1cnn(Cc2ccc(OCC3(C(F)(F)F)OCCO3)c(F)c2)c1 [Compound 263, ethyl 1-[[3-fluoro-4-[[2-(trifluoromethyl)-1,3-dioxolan-2-yl]methoxy]phenyl]methyl]-1H-pyrazole-4-carboxylate] | – | – | pest or weed control at 10 ppm (Phakopsora pachyrhizi; 10 ppm test suspension): 100%; pest or weed control at 10 ppm ([1]; 10 ppm test suspension): 0%
CCOC(=O)c1cnn(Cc2ccc(O/C=C(\OCCO)C(F)(F)F)cc2)c1 [compound 145] | 82% | 0% | –
C=CC(F)(F)OC(=O)c1cnn(Cc2ccc(OCC(O)(O)C(F)(F)F)cc2)c1 [Compound 38] | 97% | 89% | –
CCO/C(=C\Oc1cccc(Cn2cc(C(=O)OCC(C)=O)cn2)c1)C(F)(F)F [compound 337] | 100% | 0% | –
CCO/C(=C\Oc1ccc(CN2OCC(C)(C)C2=O)cc1)C(F)(F)F [compound 92] | 0% | 0% | –
CCO/C(=C\Oc1ccc(C#N)cc1)C(F)(F)F [compound 144] | 78% | 0% | –
CCO/C(=C\Oc1ccc(Cn2cc(C#N)cn2)cc1)C(F)(F)F [compound 205] | 0% | 0% | –
O=C(OCC1OCCO1)c1cnn(Cc2ccc(OCC3(C(F)(F)F)OCCO3)cc2)c1 [compound 204] | 100% | 0% | –
O=C(NCC1CC1)c1cnc(Cc2ccc(OCC3(C(F)(F)F)OCCO3)cc2)o1 [Compound 248] | 71% | 0% | –
CCOC(=O)c1cnn(Cc2ccc(CCC(O)(O)C(F)(F)F)cc2)c1 [Compound 66] | – | – | Test A rating (disease control) (Phakopsora pachyrhizi; 50 ppm test suspension): 92%; Test B rating (disease control) ([1]; 50 ppm test suspension): 89%
CCO/C(=C\Oc1ccc(Cn2cc(C(=O)NC(C)C)cn2)cc1)C(F)(F)F [compound 118] | 0% | 0% | –
O=C(NCC(F)(F)F)c1csc(Cc2ccc(OCC3(C(F)(F)F)OCCO3)cc2)n1 [Compound 70] | – | – | Test A rating (disease control) (Phakopsora pachyrhizi; 250 ppm test suspension): 100%; Test B rating (disease control) ([1]; 250 ppm test suspension): 100%
CS(=O)(=O)c1nccc(Cc2ccc(OCC3(C(F)(F)F)OCCO3)cc2)n1 [compound 282] | – | – | Test A rating (disease control) (Phakopsora pachyrhizi; 50 ppm test suspension): 0%; Test B rating (disease control) ([1]; 50 ppm test suspension): 0%
CCOC(=O)Cc1nnnn1Cc1ccc(O/C=C(\OCC)C(F)(F)F)cc1 [compound 84] | 0% | 0% | –
C=CCOC(=O)c1ccn(Cc2ccc(O/C=C(\OCC)C(F)(F)F)cc2)n1 [compound 291] | 100% | 0% | –
C=CCOC(=O)c1cnn(Cc2ccc(OCC(O)(O)C(F)(F)F)cc2)c1 [Compound 43] | 96% | 60% | –
CCOC(=O)c1cnn(Cc2ccc(OCC(O)(O)C(F)(F)F)c(F)c2)c1 [compound 264] | – | – | pest or weed control at 10 ppm (Phakopsora pachyrhizi; 10 ppm test suspension): 99%; pest or weed control at 10 ppm ([1]; 10 ppm test suspension): 80%
FC(F)(F)C1(COc2ccc(Oc3ccccc3)cc2)OCCO1 [compound 191] | 0% | 0% | –
CS(=O)(=O)c1ccc(OCC2(C(F)(F)F)OCCO2)cc1 [compound 24] | 81% | 91% | –
